These compounds were tested against T1, recombinant human Syk (GST-hSyk fusion protein) (Homo sapiens, UniProt P43405) (assay: Homogeneous Time-Resolved Fluorescence (HTRF) assay for the recombinant human Syk enzyme). Details: IC50 class; 10-dose titration, 25 μM ATP; read-out: rhSYK Activity.
T1 construct: purchased Carna Biosciences 08-176
Type: biochemical
Procedure, shortened: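 GST-hSyk (5 pM) preincubated 10 min with compound (0.1% DMSO) in 15 mM Tris-HCl pH 7.5, 2 mM DTT; reaction started with 250 nM biotinylated peptide, 5 mM Mg, 25 μM ATP, 45 min, room temperature. EDTA quench, Eu-anti-phosphotyrosine/SA-APC HTRF read after 30 min; IC50 from 10-dose titration (10 μM–0.508 nM), four-parameter fit.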

Compound | IC50 [nM]
4-{[4-(6-{[4-(difluoromethyl)pyridin-2-yl]amino}-4-methylpyridin-2-yl)-1H-pyrazol-1-yl]methyl}pyrrolidin-2-one [Example 1.35] | ≤ 100
Cc1cc(Nc2nccc(C(F)(F)F)n2)cc(-c2cnn(CC(O)C(F)(F)F)c2)c1 (single isomer, unassigned) [Example 3.44, 1,1,1-trifluoro-3-[4-(3-methyl-5-{[4-(trifluoromethyl)pyrimidin-2-yl]amino}phenyl)-1H-pyrazol-1-yl]propan-2-ol] | ≤ 100
Cc1cc(Nc2nccc(C(F)F)n2)cc(-c2cnn(C(C)C3CNC(=O)C3)c2)c1 (stereo not shown) [Example 2.69, 4-{1-[4-(3-{[4-(difluoromethyl)pyrimidin-2-yl]amino}-5-methylphenyl)-1H-pyrazol-1-yl]ethyl}pyrrolidin-2-one] | ≤ 100
Cc1cc(Nc2nccc(C(C)C)n2)cc(-c2cnn(CC3CNC(=O)O3)c2)c1 (stereo not shown) [Example 2.24, 5-{[4-(3-methyl-5-{[4-(1-methylethyl)pyrimidin-2-yl]amino}phenyl)-1H-pyrazol-1-yl]methyl}-1,3-oxazolidin-2-one] | ≤ 100
Cc1cc(Nc2cc(C(F)(F)F)ccn2)nc(-c2cnn(CC3CNC(=O)O3)c2)c1 (stereo not shown) [Example 1.28, 5-{[4-(4-methyl-6-{[4-(trifluoromethyl)pyridin-2-yl]amino}pyridin-2-yl)-1H-pyrazol-1-yl]methyl}-1,3-oxazolidin-2-one] | ≤ 100
CCOC(=O)CCn1cc(-c2cccc(Nc3nccc(C(F)(F)F)n3)c2)cn1 [Example 2.2, ethyl 3-[4-(3-{[4-(trifluoromethyl)-pyrimidin-2-yl]-amino}phenyl)-1H-pyrazol-1-yl]-propanoate] | 100 to 1000

Second part, the compound after the results:

IC50 [nM] | Compound
100 to 1000 | COC(=O)C1CCC(n2cc(-c3cc(C)cc(Nc4nccc(C(F)(F)F)n4)c3)cn2)c2ccccc21 (stereo not shown) [Example 3.52, methyl 4-[4-(3-methyl-5-{[4-(trifluoromethyl)pyrimidin-2-yl]amino}-phenyl)-1H-pyrazol-1-yl]-1,2,3,4-tetrahydronaphthalene-1-carboxylate]
≤ 100 | Cc1cc(Nc2nccc(C(F)(F)F)n2)cc(-c2cnn(CC3CCCO3)c2)c1 (stereo not shown) [Example 13.3, N-{3-methyl-5-[1-(tetra-hydrofuran-2-ylmethyl)-1H-pyrazol-4-yl]phenyl}-4-(trifluoro-methyl)-pyrimidin-2-amine]
100 to 1000 | CCOC(=O)CCc1cnn(-c2cc(C)cc(Nc3nccc(OC)n3)c2)c1 [Example 19.5, Ethyl 3-(1-{3-[(4-methoxypyrimidin-2-yl)amino]-5-methylphenyl}-1H-pyrazol-4-yl)propanoate]
≤ 100 | Cc1cc(Nc2nccc(C(F)F)n2)cc(-c2cnn(C[C@]3(O)C[C@H](C#N)C3)c2)c1 [Example 5.40, trans-3-{[4-(3-{[4-(difluoromethyl)pyrimidin-2-yl]amino}-5-methylphenyl)-1H-pyrazol-1-yl]methyl}-3-hydroxycyclobutane-carbonitrile]
≤ 100 | COc1nc(Nc2cc(C)cc(-c3cnn(C[C@H](O)C(=O)O)c3)c2)ncc1Cl [Example 11.6, (2S)-3-(4-{3-[(5-chloro-4-methoxy-pyrimidin-2-yl)-amino]-5-methyl-phenyl}-1H-pyrazol-1-yl)-2-hydroxy-propanoic acid]
≤ 100 | Cc1cc(Nc2nccc(C(F)F)n2)cc(-c2cnn(CC(C)(O)CO)c2)c1 (single isomer, unassigned) [Example 25.5, 3-[4-(3-{[4-(difluoromethyl)pyrimidin-2-yl]amino}-5-methylphenyl)-1H-pyrazol-1-yl]-2-methylpropane-1,2-diol]
100 to 1000 | Cc1cc(Nc2nccc(C(F)(F)F)n2)cc(-n2cc(C3(O)CCC(C(=O)O)CC3)cn2)c1 (stereo not shown) [Example 19.10, 4-hydroxy-4-[1-(3-methyl-5-{[4-(trifluoromethyl)pyrimidin-2-yl]amino}phenyl)-1H-pyrazol-4-yl]cyclohexanecarboxylic acid]
